Data: patent publication US8110193B2, “Methods for conditioning a subject for hematopoietic cell transplantation” (City of Hope, priority 2007, dated 2012)

Key:
[1] = tested on: IL-2, IFN-γ, TNF-α, and IL-6; experiment: Cytokines in culture supernatant of anti-CD3-stimulated spleen cells (ELISA); assay type: cell-based, mouse (BALB/c); details: 24, 48, 72 hours
Experimental: (§1) C. […] There were seven mice in each group.
One of the side effects of anti-CD3-conditioning is the cytokine storm triggered by anti-CD3 activation of T cells. […] After anti-CD3-stimulation, IL-2 concentration peaked at 48 hours, and IFN-γ, TNF-α, and IL-6 all peaked at 72 hours after culture.

[2] = tested on: IL-2, IFN-γ, TNF-α, and IL-6; experiment: Serum cytokines after anti-CD3 injection (cytokine storm); assay type: in vivo, mouse (BALB/c)
Description: as §1

host T cells = experiment: Apoptosis and yield of residual host T cells in spleen of conditioned mice; assay type: in vivo, mouse (BALB/c); details: low-dose (40 or 100 μg/g) SAHA co-injected with anti-CD3
[3] = Body temperature and tolerability after anti-CD3 injection

O=C(CCCCCCC(=O)Nc1ccccc1)NO [SAHA, suberoylanilide hydroxamic acid]
IL-2, IFN-γ, TNF-α, IL-6 production in culture ([1]; 0.5 μM SAHA): reduced cytokine production significantly at all time points | IL-2, IFN-γ, TNF-α, IL-6 production in culture ([1]; 1 μM SAHA): nearly undetectable | reduction of serum IL-2, IFN-γ, TNF-α, IL-6 at peak time points vs anti-CD3 alone ([2]; SAHA 40 μg/g co-injected with anti-CD3 5 μg/g): more than 2 fold | serum cytokine reduction compared to SAHA 40 μg/g ([2]; SAHA 200 μg/g co-injected with anti-CD3, data not shown): reductions in serum cytokine levels that were similar | apoptosis of host T cells and yield of residual live T cells in spleen (host T cells): did not significantly increase apoptosis of host T cells or reduce the yield of residual live T cells | hypothermia after anti-CD3 injection ([3]; SAHA 40 μg/g co-injected with anti-CD3): significantly reduced hypothermia | adverse signs ([3]; SAHA 200 μg/g co-injected with anti-CD3): severe diarrhea | mice that died ([3]; SAHA 200 μg/g co-injected, five days after anti-CD3-conditioning): 30%
